Test results reported in patent US7125872B2, “β-sheet mimetics and use thereof as inhibitors of biologically active peptides or proteins” (Myriad Genetics, Inc., priority 1995, dated 2006).
Blank lines part the entries; values can stand above or below the compound they belong to.

Tests used:
bovine trypsin = target: T1, bovine trypsin (Bos taurus, UniProt P00760); experiment: trypsin inhibition assay, IC50 (Example 4); assay type: biochemical
T1 construct: purchased Sigma
T1 sequence (P00760 24-246): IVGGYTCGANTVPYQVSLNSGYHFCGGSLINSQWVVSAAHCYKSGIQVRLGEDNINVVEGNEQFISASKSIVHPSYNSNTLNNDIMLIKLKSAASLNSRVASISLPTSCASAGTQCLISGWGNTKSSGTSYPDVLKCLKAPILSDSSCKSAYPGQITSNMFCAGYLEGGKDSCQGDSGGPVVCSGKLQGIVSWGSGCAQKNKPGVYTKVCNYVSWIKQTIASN
Protocol: All inhibition assays of this experiment were performed at room temperature in 96 well microplates using a Bio-Rad microplate reader (Model 3550). […] This solution (2.05 mM) served as the stock solution for all the inhibition assays. The hydrolysis of chromogenic substrates was monitored at 405 nm. The reaction progress curves were recorded by reading the plates typically 90 times with 30 seconds to 2 minute intervals. The initial rate were determined by unweighted nonlinear least-squares fitting to a first order reaction in GraFit. The determined initial velocities were then nonlinear least-square fitted against the concentrations of structure.
In the trypsin assay, pH 7.8 Tris (0.10 M Tris and 0.02 M CaCl2) was utilized as the buffer. BAPNA (from Sigma) was used at 1 mg/ml in 1% DMSO (v/v) deionized water solution as substrate. The same dilutions of structure (13b) were made as for Factor VII assay.

[1] = pharmacodynamic and pharmacokinetic study in rats; assay type: in vivo, male Sprague Dawley rats
Protocol: Specifically, a pharmacodynamic and pharmacokinetic study of structure (20b) was conducted in male Sprague Dawley rats. […] Groups of rats (n=3 or 4) were sacrificed and exsanguinated at 0.25, 0.5, 1, 2, 4 and 8 hours following dosing. Efficacy parameters, aPTT and TT, were measured for each plasma sample.

factor VII = factor VII (Homo sapiens, UniProt P08709); experiment: Factor VII inhibition assay, Ki (Example 5); assay type: biochemical
Chain of factor VII (P08709 213-466 limits assumed): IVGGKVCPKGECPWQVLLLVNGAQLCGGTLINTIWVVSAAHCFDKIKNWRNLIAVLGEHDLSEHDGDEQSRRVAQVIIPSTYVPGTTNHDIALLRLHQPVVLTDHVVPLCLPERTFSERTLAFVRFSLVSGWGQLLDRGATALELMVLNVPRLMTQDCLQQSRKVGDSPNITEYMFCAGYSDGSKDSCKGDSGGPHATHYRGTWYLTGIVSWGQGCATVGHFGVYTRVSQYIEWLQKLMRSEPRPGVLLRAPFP
Chain of factor VII (P08709 61-212 limits assumed): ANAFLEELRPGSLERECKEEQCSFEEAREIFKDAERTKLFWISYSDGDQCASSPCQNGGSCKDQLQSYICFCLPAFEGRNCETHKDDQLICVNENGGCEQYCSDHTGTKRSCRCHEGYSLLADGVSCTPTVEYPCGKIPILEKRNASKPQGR
Chain of factor VII (P13726 33-295 partner): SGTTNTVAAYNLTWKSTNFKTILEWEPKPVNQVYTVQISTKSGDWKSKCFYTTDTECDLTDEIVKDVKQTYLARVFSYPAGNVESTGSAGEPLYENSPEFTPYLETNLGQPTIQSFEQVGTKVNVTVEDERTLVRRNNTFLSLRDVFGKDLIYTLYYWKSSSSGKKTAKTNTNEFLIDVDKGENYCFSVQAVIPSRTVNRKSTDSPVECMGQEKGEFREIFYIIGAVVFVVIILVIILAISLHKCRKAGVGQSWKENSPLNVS
Protocol: (§1) The reaction progress curves were recorded by reading the plates, typically 60 times with 30 second to 2 minute intervals. Initial rates were determined by unweighted nonlinear least-squares fitting to a first order reaction in GraFit (Erithacus Software Limited, London, England).
From this concentration point seven more sequential dilutions were made for the assay.

factor X = factor X (Bos taurus, UniProt P00743); experiment: Factor X inhibition assay, Ki, bovine plasma enzyme; assay type: biochemical; details: bovine plasma (footnote e)
Chain of factor X (P00743 234-492 limits assumed): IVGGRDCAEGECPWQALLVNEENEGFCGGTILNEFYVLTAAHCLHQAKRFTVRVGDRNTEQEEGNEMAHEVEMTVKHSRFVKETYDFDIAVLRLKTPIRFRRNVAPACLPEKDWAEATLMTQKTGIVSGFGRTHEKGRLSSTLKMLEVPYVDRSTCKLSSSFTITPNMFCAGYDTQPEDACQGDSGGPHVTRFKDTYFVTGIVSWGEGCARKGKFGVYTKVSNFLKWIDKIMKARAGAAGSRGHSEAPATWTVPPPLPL
Chain of factor X (P00743 41-180 limits assumed): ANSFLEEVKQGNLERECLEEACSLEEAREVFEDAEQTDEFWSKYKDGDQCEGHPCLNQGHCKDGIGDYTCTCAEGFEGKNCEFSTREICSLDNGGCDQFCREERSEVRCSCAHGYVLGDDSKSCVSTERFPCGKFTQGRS
Protocol: All inhibition assays were performed at room temperature in 96 well microplates using Bio-Rad microplate reader (Model 3550). […] The hydrolysis of chromogenic subsstrates was monitored at 405 nm. The reaction progress curves were recorded by reading the plates, typically 60 times with 30 second to 2 minute intervals. Initial rates were determined by unweighted nonlinear least-squares fitting to a first order reaction in GraFit (Erithacus Software Limited, London, England).
Factor X: Buffer and substrate were the same as used for thrombin assay. A 1:100 dilution was made in the pH8.0 tris buffer to serve as the first point. Seven more dilutions from the first were made for the assay.

tryptase = target: T2, tryptase; experiment: tryptase inhibition assay, Ki; assay type: biochemical, human
T2 construct: rows headed: Ki tryptase; Ki Tryptase; tryptase; human lung; 2 (nM assay conc.)
Protocol: as §1
Tryptase: 0.1 M tris, 0.2 M NaCl, 0.1 mg/ml heparin, pH=8.0 was utilized as buffer. […] From this point seven more dilutions were made for the assay.

[2] = target: T3, Thrombin thrombomodulin complex (Bos taurus, UniProt P00735); experiment: thrombin-thrombomodulin complex inhibition assay, Ki; assay type: biochemical; details: read-out: Ki T.T.C. (Thrombin thrombomodulin complex)
T3 construct: thrombin was preincubated with 4 n thrombomodulin for 20 minutes at room temperature

IC50 (bovine trypsin): 16 ± 8 nM
Compound: N=C(N)NCCC[C@H](NC(=O)[C@@H]1CCN2CC[C@@](N)(Cc3ccccc3)C(=O)N12)C(=O)CCl [Structure (13b)]

bioavailability of orally administered compound ([1]; rat, 10 mg/kg PO vs 4 mg/kg IV): approximately 27%
Compound: N=C(N)NCCC[C@H](NC(=O)[C@@H]1CCN2CC[C@@](N)(Cc3ccccc3)C(=O)N12)C(=O)c1nc2ccccc2s1 [Structure (20b)]
efficacy parameters aPTT and TT ([1]; rat plasma, 4 mg/kg IV and 10 mg/kg PO, FIGS. 4A and 4B): in viva efficacy

Ki (factor VII): 1770 nM
Ki (factor X): 4650 nM
Compound: N=C(N)NCCC[C@H](NC(=O)[C@@H]1CC[C@@H]2CC[C@](N)(Cc3ccccc3)C(=O)N21)C(=O)c1nc2ccccc2s1 [Structure (29a)]

Ki (tryptase): 9 nM
Ki [2]: 0.088 nM
Compound: N=C(N)NCCC[C@H](NC(=O)[C@@H]1CC[C@@H]2CC[C@@](N)(Cc3ccccc3)C(=O)N21)C(=O)c1nc2ccccc2s1 [Structure (29b)]
